# Activity calls are given as the source filed them.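 Rule for the calls: active = compounds whose mean EC50 for raising GC-A cGMP output is under 66 µM; inactive = the rest.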
# Target: Atrial natriuretic peptide receptor 1 (Homo sapiens) (UniProt P16066)
# Test: human GC-A cGMP response enhancers – HEK293 GC-A cells, cGMP TR-FRET, powder samples, SAR follow-up (AID 1671465)
# Details: EC30 ANP
# Atrial natriuretic peptide receptor 1 (Homo sapiens), sequence (P16066 whole entry, looked up): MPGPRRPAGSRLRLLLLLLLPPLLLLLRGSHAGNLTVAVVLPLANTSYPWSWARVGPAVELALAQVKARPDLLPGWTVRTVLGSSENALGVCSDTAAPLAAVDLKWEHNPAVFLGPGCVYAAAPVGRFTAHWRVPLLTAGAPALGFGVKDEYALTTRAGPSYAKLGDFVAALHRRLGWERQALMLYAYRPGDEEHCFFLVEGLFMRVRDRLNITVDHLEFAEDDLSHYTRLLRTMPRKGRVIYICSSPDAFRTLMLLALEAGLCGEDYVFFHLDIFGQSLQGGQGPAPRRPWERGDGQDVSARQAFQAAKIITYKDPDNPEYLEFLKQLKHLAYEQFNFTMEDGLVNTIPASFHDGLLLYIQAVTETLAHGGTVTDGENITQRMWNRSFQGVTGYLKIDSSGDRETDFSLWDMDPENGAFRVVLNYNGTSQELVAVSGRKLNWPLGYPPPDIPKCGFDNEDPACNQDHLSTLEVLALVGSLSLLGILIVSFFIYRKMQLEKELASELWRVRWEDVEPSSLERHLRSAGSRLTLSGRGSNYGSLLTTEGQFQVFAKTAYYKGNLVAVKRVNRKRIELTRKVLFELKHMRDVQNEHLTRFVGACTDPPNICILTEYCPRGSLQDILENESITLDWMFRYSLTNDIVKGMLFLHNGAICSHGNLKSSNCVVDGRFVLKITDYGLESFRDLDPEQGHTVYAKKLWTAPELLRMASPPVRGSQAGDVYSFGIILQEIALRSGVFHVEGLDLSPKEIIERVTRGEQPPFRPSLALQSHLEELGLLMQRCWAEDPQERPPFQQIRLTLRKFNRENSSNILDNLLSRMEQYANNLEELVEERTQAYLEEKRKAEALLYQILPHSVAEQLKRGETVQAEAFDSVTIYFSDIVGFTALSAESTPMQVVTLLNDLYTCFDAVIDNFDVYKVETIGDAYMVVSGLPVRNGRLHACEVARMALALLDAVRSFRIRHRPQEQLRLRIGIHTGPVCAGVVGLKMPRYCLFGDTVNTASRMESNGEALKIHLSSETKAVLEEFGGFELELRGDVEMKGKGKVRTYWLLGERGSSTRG
row,SMILES,EC50
1,CC(C)(C)C(=O)N1CCCC(C(=O)Nc2nc3c(F)cc(F)cc3s2)C1 (stereo unspecified),5070 nM
2,CC(C)(C)OC(=O)N1CCCC(C(=O)Nc2nc3c(F)cc(F)cc3s2)C1 (stereo unspecified),8260 nM
3,CC(=O)Nc1nc2c(F)cc(F)cc2s1,23900 nM
4,CC(C)(C)CC(=O)N1CCCC(C(=O)Nc2nc3c(F)cc(F)cc3s2)C1 (stereo unspecified),3570 nM
5,CC(C)(C)C(=O)N1CCC(C(=O)Nc2nc3c(F)cc(F)cc3s2)C1 (stereo unspecified),2090 nM
6,O=C(Nc1nc2c(F)cc(F)cc2s1)C1CCCN(C(=O)C2CC2)C1 (stereo unspecified),1970 nM
7,O=C(Nc1nc2c(F)cc(F)cc2s1)C1CCN(C(=O)C2CCC2)CC1,1720 nM
8,CN1CCCC(C(=O)Nc2nc3c(F)cc(F)cc3s2)C1 (stereo unspecified),1230 nM
9,CN(C)CCN1CCCC(C(=O)Nc2nc3c(F)cc(F)cc3s2)C1 (stereo unspecified),393 nM
10,O=C(Nc1nc2c(F)cc(F)cc2s1)C1CCCN(C(=O)c2ccccc2)C1 (stereo unspecified),3360 nM
11,O=C(Nc1nc2c(F)cc(F)cc2s1)C1CCCNC1 (stereo unspecified),1050 nM
12,CC(=O)N1CCCC(C(=O)Nc2nc3c(F)cc(F)cc3s2)C1 (stereo unspecified),1650 nM
13,O=C(Nc1nc2c(F)cc(F)cc2s1)C1CCCN(Cc2ccccc2)C1 (stereo unspecified),2410 nM
14,O=C(Nc1nc2c(F)cc(F)cc2s1)C1CCCN(C(=O)Cc2ccccc2)C1 (stereo unspecified),2020 nM
15,CS(=O)(=O)N1CCCC(C(=O)Nc2nc3c(F)cc(F)cc3s2)C1 (stereo unspecified),1750 nM
16,CC(=O)N1CCC(C(=O)Nc2nc3c(F)cc(F)cc3s2)CC1,1150 nM
17,CC(C)(C)C(=O)N1CCC(C(=O)Nc2nc3c(Cl)cccc3s2)CC1,2000 nM
18,O=C(Nc1nc2c(F)cc(F)cc2s1)C1CCCN(C(=O)C2CCC2)C1 (stereo unspecified),1810 nM
19,CC(C)(C)C(=O)N1CCC(C(=O)Nc2nc3c(Cl)ccc(Cl)c3s2)CC1,> 66700 nM (inactive)
20,O=C(Nc1nc2c(F)cc(F)cc2s1)C1CCCCC1,2730 nM
21,CC(C)N1CCC(C(=O)Nc2nc3c(F)cc(F)cc3s2)CC1,840 nM
